Results from ChEMBL document CHEMBL1201862, “PubChem BioAssay data set” (2004).
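Tested at 5 concentrations; 48 h exposure; 96-well plates; endpoints linearly interpolated, else capped at highest concentration. GI50 = concentration required for 50% inhibition of growth.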 The source made the active and inactive calls. Cut-off read from the data, not from the text of the source: active = GI50 up to about 1.1 µM and inactive = higher.

How the values were obtained:
Assay in all cases: growth of human tumour cells (NCI), 48 h
OVCAR-4 = system: OVCAR-4
XF498 = system: XF498
LXFL 529 = system: LXFL 529
M14 = system: M14
U-251 = system: U-251
HCT-116 = system: HCT-116
M19-MEL = system: M19-MEL
SW-620 = system: SW-620
DMS-273 = system: DMS-273
SF-295 = system: SF-295
RXF 631 = system: RXF 631
786-0 = system: 786-0
MOLT-4 = system: MOLT-4
HT-29 = system: HT-29
Malme-3M = system: Malme-3M
LOX IMVI = system: LOX IMVI
HOP-18 = system: HOP-18
K562 = system: K562
TK-10 = system: TK-10
DMS-114 = system: DMS-114
OVCAR-5 = system: OVCAR-5
CCRF-CEM = system: CCRF-CEM
ACHN = system: ACHN
IGROV-1 = system: IGROV-1
NCI-H522 = system: NCI-H522
COLO 205 = system: COLO 205
SN12C = system: SN12C
DLD-1 = system: DLD-1
A549 = system: A549
HCC 2998 = system: HCC 2998
SK-MEL-28 = system: SK-MEL-28
SK-MEL-5 = system: SK-MEL-5
NCI-H23 = system: NCI-H23
SF-539 = system: SF-539
UACC-257 = system: UACC-257
EKVX = system: EKVX
UACC-62 = system: UACC-62
HOP-62 = system: HOP-62
UO-31 = system: UO-31
KM12 = system: KM12
A498 = system: A498
SK-OV-3 = system: SK-OV-3
SR = system: SR
SF-268 = system: SF-268
CAKI-1 = system: CAKI-1
HL-60 = system: HL-60
SNB-19 = system: SNB-19
RXF 393 = system: RXF 393
OVCAR-8 = system: OVCAR-8
KM-20L2 = system: KM-20L2
SNB-75 = system: SNB-75
OVCAR-3 = system: OVCAR-3
NCI-H226 = system: NCI-H226

Fc1cccc2cc3ccc4cccc5ccc(c12)c3c45
GI50 (OVCAR-4): > 100 µM (inactive)
GI50 (XF498): > 100 µM (inactive)
GI50 (LXFL 529): > 100 µM (inactive)
GI50 (M14): > 100 µM (inactive)
GI50 (U-251): > 100 µM (inactive)
GI50 (HCT-116): > 100 µM (inactive)
GI50 (M19-MEL): > 100 µM (inactive)
GI50 (SW-620): > 100 µM (inactive)
GI50 (DMS-273): 0.296 µM (active)
GI50 (SF-295): > 100 µM (inactive)
GI50 (RXF 631): > 100 µM (inactive)
GI50 (786-0): > 100 µM (inactive)
GI50 (MOLT-4): > 100 µM (inactive)
GI50 (HT-29): > 100 µM (inactive)
GI50 (Malme-3M): > 100 µM (inactive)
GI50 (LOX IMVI): > 100 µM (inactive)
GI50 (HOP-18): 1.72 µM (inactive)
GI50 (K562): > 100 µM (inactive)
GI50 (TK-10): 0.721 µM (active)
GI50 (DMS-114): > 100 µM (inactive)
GI50 (OVCAR-5): 7.4 µM (inactive)
GI50 (CCRF-CEM): > 100 µM (inactive)
GI50 (ACHN): > 100 µM (inactive)
GI50 (IGROV-1): > 100 µM (inactive)
GI50 (NCI-H522): > 100 µM (inactive)
GI50 (COLO 205): > 100 µM (inactive)
GI50 (SN12C): > 100 µM (inactive)
GI50 (DLD-1): 0.509 µM (active)
GI50 (A549): > 100 µM (inactive)
GI50 (HCC 2998): 7.52 µM (inactive)
GI50 (SK-MEL-28): > 100 µM (inactive)
GI50 (SK-MEL-5): > 100 µM (inactive)
GI50 (NCI-H23): 1.63 µM (inactive)
GI50 (SF-539): > 100 µM (inactive)
GI50 (UACC-257): > 100 µM (inactive)
GI50 (EKVX): 2.66 µM (inactive)
GI50 (UACC-62): > 100 µM (inactive)
GI50 (HOP-62): > 100 µM (inactive)
GI50 (UO-31): > 100 µM (inactive)
GI50 (KM12): > 100 µM (inactive)
GI50 (A498): > 100 µM (inactive)
GI50 (SK-OV-3): 0.771 µM (active)
GI50 (SR): 0.0146 µM (active)
GI50 (SF-268): > 100 µM (inactive)
GI50 (CAKI-1): > 100 µM (inactive)
GI50 (HL-60): > 100 µM (inactive)
GI50 (SNB-19): > 100 µM (inactive)
GI50 (RXF 393): > 100 µM (inactive)
GI50 (OVCAR-8): > 100 µM (inactive)
GI50 (KM-20L2): > 100 µM (inactive)
GI50 (SNB-75): > 100 µM (inactive)
GI50 (OVCAR-3): > 100 µM (inactive)
GI50 (NCI-H226): 7.66 µM (inactive)
